Marks after values point to notes of the source that are not given here.
Key:
[1] = system: mice; experiment: Acute toxicity, intraperitoneal administration (mortality, LD50, body weight, dietary); type: in vivo; settings: for Dead number: 20 mice; for Dead number / mortality: 7 days
Protocol: Acute Toxicity • Compounds PDHM/TDHM.
140 mice were divided into 7 groups (n=20), each group include 10 males and 10 females, they were treated with different concentrations of dosages and observed for 7 days. Specific experimental groups and experimental results were noted below. Note: Section 1-6 group compound are PDHM groups, and group 7 is a negative control group.
140 mice were divided into 7 groups (n=20), each group include 10 males and 10 females, they were treated with different concentrations of dosage and observed for 7 days. Note: Section 1-6 group compound are PDHM groups, and group 7 is a negative control group.

[2] = system: Balb/C mice; experiment: Plasma EtOH concentration assay; type: in vivo; settings: intragastric 2 mg/kg
Protocol: Plasma EtOH Concentration Assay. • Blood samples from the tail vein of mice at different time points (0, 15, 30, 45, 60, 90, 120, 240, 480 and 720 minutes) after EtOH (30% ethanol, 0.2 ml/kg bw) or TDHM (2 mg/kg bw), PDHM (2 mg/kg bw) or DHM (2 mg/kg bw) gavage were collected for plasma EtOH concentrations (plasma [EtOH]) assays. (“BW” or “bw”: body weight) • Briefly, the Balb/C mice were put into a restraint tube and the tail was warmed at 37° C. The tail vein at the tip of the tail was punched with a sharp blade. Approximately 0.2 ml venous blood was dropped to a capillary blood collection tube containing lithium heparin (Ram Scientific). Blood samples were centrifuged at 2500 rpm for 20 min. The supernatant was collected and stored at −80° C. until assay. The EtOH content of each blood sample was measured in duplicate along with EtOH standards using the alcohol oxidase reaction procedures (EnzyChrom™ Ethanol Acid Assay Kit, ECET-100) (Liang et al., 2007). The sample preparations were the same as described above.

[3] = system: Balb/C mice; experiment: Anti-alcoholism test (agent 30 min after alcohol); type: in vivo
From the text: Anti-Alcoholism Tests • Groups design and treatment before experiment are as the same as that in Deintoxication test. […]

[4] = system: Balb/C mice; experiment: Climbing net test; type: in vivo; settings: 2 mg/kg gavage 30 min before alcohol
Protocol: Climbing Net Test • Groups design and treatment before experiment are as the same as that in deintoxication test. […] 30 minutes later all mice administrated alcohol (liquid Erguotou, ethonol concentration was diluted to 30%) 0.2 mL/kg BW and placed on a vertical metal net and measured the time when mice climbed on net.

[5] = system: Balb/C mice; experiment: Dose-effect relationship of TDHM (sleep time and climbing time); type: in vivo
Protocol: Assay the Dose-Effect Relationship of TDHM • Groups design and treatment before experiment are the same as that in Deintoxication test. 30 minutes before intragastric administration of alcohol, mice were gavaged with 0.5 mg/kg BW, 2.0 mg/kg BW, 8.0 mg/kg BW, 32 mg/kg BW, 64 mg/kg BW, 128 mg/kg BW TDHM respectively. Sleep time and climbing time were recorded.

[6] = system: Balb/C mice; experiment: Deintoxication test (agent 30 min before alcohol)
[7] = system: mice; experiment: Acute toxicity, intragastric administration (maximum tolerated dose)
[8] = 2 mg/kg gavage 30 min after 30% ethanol
[9] = 2 mg/kg gavage 30 min after 30% ethanol, 20 mice
[10] = 8.0 mg/kg BW intragastric, drunk mice
[11] = TDHM 0.5 mg/kg gavage 30 min before alcohol
[12] = TDHM 2 mg/kg gavage 30 min before alcohol
[13] = TDHM 8 mg/kg gavage 30 min before alcohol
[14] = TDHM 32 mg/kg gavage 30 min before alcohol
[15] = TDHM 64 mg/kg gavage 30 min before alcohol
[16] = TDHM 128 mg/kg gavage 30 min before alcohol
[17] = 2 mg/kg gavage 30 min before 30% ethanol
[18] = 2 mg/kg gavage 30 min before 30% ethanol, 20 mice
[19] = agents intragastric 30 minutes before drinking

triethylammonium 2,3-dihydroxy-5-((2R,3R)-3,5,7-trihydroxy-4-oxochroman-2-yl)phenolate [TDHM]
Dead number ([1]; TDHM 636 mg/kg i.p.): 0
mortality ([1]; TDHM 636 mg/kg i.p.): 0%
average dietary of mice ([1]; TDHM 636 mg/kg i.p., D1): 3.62 g
average dietary of mice ([1]; TDHM 636 mg/kg i.p., D2): 4.67 g
average dietary of mice ([1]; TDHM 636 mg/kg i.p., D3): 5.33 g
average dietary of mice ([1]; TDHM 636 mg/kg i.p., D4): 6.4 g
average dietary of mice ([1]; TDHM 636 mg/kg i.p., D5): 5.53 g
average dietary of mice ([1]; TDHM 636 mg/kg i.p., D6): 5.18 g
average dietary of mice ([1]; TDHM 636 mg/kg i.p., D7): 5.44 g
Dead number ([1]; TDHM 674.16 mg/kg i.p.): 4
mortality ([1]; TDHM 674.16 mg/kg i.p.): 20%
average dietary of mice ([1]; TDHM 674.16 mg/kg i.p., D1): 3.96 g
average dietary of mice ([1]; TDHM 674.16 mg/kg i.p., D2): 4.8 g
average dietary of mice ([1]; TDHM 674.16 mg/kg i.p., D3): 6.7 g
average dietary of mice ([1]; TDHM 674.16 mg/kg i.p., D4): 6.98 g
average dietary of mice ([1]; TDHM 674.16 mg/kg i.p., D5): 5.58 g
average dietary of mice ([1]; TDHM 674.16 mg/kg i.p., D6): 5.58 g
average dietary of mice ([1]; TDHM 674.16 mg/kg i.p., D7): 5.73 g
Dead number ([1]; TDHM 714.61 mg/kg i.p.): 4
mortality ([1]; TDHM 714.61 mg/kg i.p.): 20%
average dietary of mice ([1]; TDHM 714.61 mg/kg i.p., D1): 3.62 g
average dietary of mice ([1]; TDHM 714.61 mg/kg i.p., D2): 5.42 g
average dietary of mice ([1]; TDHM 714.61 mg/kg i.p., D3): 6.55 g
average dietary of mice ([1]; TDHM 714.61 mg/kg i.p., D4): 7.06 g
average dietary of mice ([1]; TDHM 714.61 mg/kg i.p., D5): 5.49 g
average dietary of mice ([1]; TDHM 714.61 mg/kg i.p., D6): 5.17 g
average dietary of mice ([1]; TDHM 714.61 mg/kg i.p., D7): 5.2 g
Dead number ([1]; TDHM 757.49 mg/kg i.p.): 8
mortality ([1]; TDHM 757.49 mg/kg i.p.): 40%
average dietary of mice ([1]; TDHM 757.49 mg/kg i.p., D1): 3.95 g
average dietary of mice ([1]; TDHM 757.49 mg/kg i.p., D2): 5.3 g
average dietary of mice ([1]; TDHM 757.49 mg/kg i.p., D3): 7.08 g
average dietary of mice ([1]; TDHM 757.49 mg/kg i.p., D4): 8.18 g
average dietary of mice ([1]; TDHM 757.49 mg/kg i.p., D5): 5.78 g
average dietary of mice ([1]; TDHM 757.49 mg/kg i.p., D6): 5.83 g
average dietary of mice ([1]; TDHM 757.49 mg/kg i.p., D7): 6.25 g
Dead number ([1]; TDHM 802.94 mg/kg i.p.): 18
mortality ([1]; TDHM 802.94 mg/kg i.p.): 90%
average dietary of mice ([1]; TDHM 802.94 mg/kg i.p., D1): 4.6 g
average dietary of mice ([1]; TDHM 802.94 mg/kg i.p., D2): 7.66 g
average dietary of mice ([1]; TDHM 802.94 mg/kg i.p., D3): 7.08 g
average dietary of mice ([1]; TDHM 802.94 mg/kg i.p., D4): 9.04 g
average dietary of mice ([1]; TDHM 802.94 mg/kg i.p., D5): 6.89 g
average dietary of mice ([1]; TDHM 802.94 mg/kg i.p., D6): 6.23 g
average dietary of mice ([1]; TDHM 802.94 mg/kg i.p., D7): 6.27 g
Dead number ([1]; TDHM 851.11 mg/kg i.p.): 20
mortality ([1]; TDHM 851.11 mg/kg i.p.): 100%
average dietary of mice ([1]; TDHM 851.11 mg/kg i.p., D1): 0 g
average dietary of mice ([1]; TDHM 851.11 mg/kg i.p., D2): 0 g
average dietary of mice ([1]; TDHM 851.11 mg/kg i.p., D3): 0 g
average dietary of mice ([1]; TDHM 851.11 mg/kg i.p., D4): 0 g
average dietary of mice ([1]; TDHM 851.11 mg/kg i.p., D5): 0 g
average dietary of mice ([1]; TDHM 851.11 mg/kg i.p., D6): 0 g
average dietary of mice ([1]; TDHM 851.11 mg/kg i.p., D7): 0 g
effect on dietary and body weight ([1]; mice): no significant effect
LD50 ([1]; mice, i.p., observed 7 days): 748.69 mg/kg
blood alcohol concentration vs control group treated with saline [2]: significantly decreased
reduction of blood alcohol concentration compared with DHM [2]: better beneficial effect than DHM
Sleep time M ± SD [3, 8]: 99.29 ± 19.23*^& min
Tolerance time M ± SD [3, 8]: 26.28 ± 17.49 min
Dead number [3, 9]: 0 piece
Rate of drunk [3, 9]: 0%
sleep time in drunk mice comparing with DHM ([3]; 2 mg/kg gavage 30 min after alcohol): remarkably shorten
climbing time vs normal control mice [4]: significantly prolonged
climbing ([4]; vertical metal net): 471.5 ± 155.89 min
climbing time vs other concentrations of TDHM [5, 10]: longer
sleep time vs other concentrations of TDHM [5, 10]: significantly shorter
Climbing time [5, 11]: 184.5 min
Holding time [5, 11]: 147.2 min
Climbing time [5, 12]: 272.67 min
Holding time [5, 12]: 151.00 min
Climbing time [5, 13]: 368.33 min
Holding time [5, 13]: 104.5 min
Climbing time [5, 14]: 243.17 min
Holding time [5, 14]: 106.67 min
Climbing time [5, 15]: 271.83 min
Holding time [5, 15]: 84.33 min
Climbing time [5, 16]: 298.33 min
Holding time [5, 16]: 93.5 min
Sleep time M ± SD [6, 17]: 69.29 ± 48.40 min
Tolerance time M ± SD [6, 17]: 43.29 ± 23.44 min
Dead number [6, 18]: 0 piece
Rate of drunk [6, 18]: 0%
holding time comparing with DHM [6, 19]: shorten
tolerance time of righting reflex disappearing comparing with DHM [6, 19]: obviously prolonged
pathological examination of stomach, liver, kidney ([7]; mice at MTD, end of 7-day observation): no obvious degeneration, necrosis and other changes
pathology changes in livers, kidneys, hearts and lungs ([7]; mice of the toxicity experiments): No degeneration and necrosis pathology changes
deaths during the observation period at MTD ([7]; mice, gavage three times a day, 7 days): No deaths
